Measurements as given in ChEMBL document CHEMBL1949614, “Advent of Imidazo[1,2-a]pyridine-3-carboxamides with Potent Multi- and Extended Drug Resistant Antituberculosis Activity” (ACS Med Chem Lett, 2011).
In brackets after ≈: the same amount, converted by molar mass.

Tests used:
Assay in all cases: microbe, parasite or virus in culture
[1] = system: Mycobacterium tuberculosis
[2] = system: Mycobacterium tuberculosis; remark: listed apart in the source
[3] = system: Mycobacterium tuberculosis; remark: listed apart in the source
[4] = system: Mycobacterium tuberculosis; remark: listed apart in the source
[5] = system: Mycobacterium tuberculosis; settings: variant bovis BCG

Compound | MIC90 [1] [µM] | MIC90 [2] [µM] | MIC90 [3] [µM] | MIC90 [4] [µM] | MIC90 [5] [µM]
COc1cccc(CNC(=O)c2c(C)nc3ncc(C)cn23)c1 | 1.49 (≈ 0.462 µg/mL) | 5.84 (≈ 1.81 µg/mL) | 1.02 (≈ 0.317 µg/mL) | 5.84 (≈ 1.81 µg/mL) | 2.78 (≈ 0.863 µg/mL)
NNC(=O)c1ccncc1 [ISONIAZID] |  | > 8 |  |  | 
Cc1ccn2c(C(=O)NCc3ccccc3)c(C)nc2c1 | 0.28 (≈ 0.0782 µg/mL) |  | 1.07 (≈ 0.299 µg/mL) | 1.02 (≈ 0.285 µg/mL) | 0.33 (≈ 0.0922 µg/mL)
CO[C@H]1/C=C/O[C@@]2(C)Oc3c(C)c(O)c4c(O)c(c(/C=N/N5CCN(C)CC5)c(O)c4c3C2=O)NC(=O)/C(C)=C\C=C\[C@H](C)[C@H](O)[C@@H](C)[C@@H](O)[C@@H](C)[C@H](OC(C)=O)[C@@H]1C [RIFAMPIN] | > 1 |  |  |  | < 0.78
